EC90 and CC90 data for 14 compounds are collected here from patent publication US20120202794A1 (priority 2011, published 2012).

Broadly, the EC90 is the concentration needed for an effect of 90%.

For series [1], the system named is HCV Replicon 1b. Briefly: HCV inhibition assay, HCV replicon 1b (Clone A or ET-lunet cells; RT-PCR or luciferase reporter). In kind it is cell-based. The following applies: Hepatitis C virus, 96 h, HCV replicon 1b; 4 days incubation; read-out: Replicon 1b potency EC90. The procedure, abridged: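 Inhibition read either as luciferase signal (ET replicon) or as HCV 5′-NTR RNA by RT-PCR relative to rRNA, % = (1−2^−ΔΔCt)×100, against DMSO controls, giving EC50 and EC90. Cells: Clone A or ET-lunet, seeded 1500 or 3000/well, exposed 4 days at 37 °C, 5% CO2, 0.5% DMSO.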
In general terms: A replicon is a self-replicating genome or part of one, used to study replication in cells.

Series [2] in a line: Cell cytotoxicity assay (MTS), CC90 as reported in Table 1, cell line not stated. It is filed as cell-based. The settings on record: human; cell line not given. The procedure, abridged:
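MTS read-out (490 nm, 2 h dye step) after 8-day exposure at 37° C. Huh7, HepG2, BxPC3 were seeded at 2×10^3 and CEM at 5×10^3 cells/well, with compound serially diluted from 100 μM. CC90 comes from comparison with untreated control wells.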

For `CC(C)C[C@H]1CN(Cc2cc(-c3ccc(F)cc3)on2)[C@@H](CC(C)C)C(=O)N1` [Compound 196], in series [1], the 90% effect concentration (EC90) amounted to 80 nM. This compound also yielded a CC90 at 8 days in series [2] of over 10000 nM.
As to `CC(C)C[C@H]1CN(Cc2cc(-c3ccc(Cl)cc3)on2)[C@@H](CC(C)C)C(=O)N1` [Compound 197], in series [1], the concentration for an effect of 90% (EC90) amounted to 240 nM. The CC90 at 8 days in series [2] was over 10000 nM.
On the same counts, the results for `CC(C)C[C@H]1CN(Cc2cc(-c3ccc(Br)cc3)on2)[C@@H](CC(C)C)C(=O)N1` [Compound 198] are 550 nM and over 10000 nM.
For `Cc1ccc(-c2cc(CN3C[C@H](CC(C)C)NC(=O)[C@@H]3CC(C)C)no2)cc1` [Compound 199] the same measures were 2150 nM and over 10000 nM.
Regarding `COc1ccc(-c2cc(CN3C[C@H](CC(C)C)NC(=O)[C@@H]3CC(C)C)no2)cc1` [Compound 200, (3S,6S)-3,6-Diisobutyl-4-((5-(4-methoxyphenyl)isoxazol-3-yl)methyl)piperazin-2-one], in series [1], the EC90 came out at 5790 nM. In series [2], this compound showed a CC90 at 8 days of over 10000 nM.
With `CC(C)C[C@H]1CN(Cc2cc(-c3ccco3)on2)[C@@H](CC(C)C)C(=O)N1` [Compound 201, (3S,6S)-4-((5-(Furan-2-yl)isoxazol-3-yl)methyl)-3,6-diisobutylpiperazin-2-one], the EC90 in series [1] was 1820 nM. In series [2], the CC90 at 8 days was over 10000 nM.
Consider `CC(C)C[C@H]1CN(Cc2cc(-c3cccs3)on2)[C@@H](CC(C)C)C(=O)N1` [Compound 202, (3S,6S)-3,6-Diisobutyl-4-((5-(thiophen-2-yl)isoxazol-3-yl)methyl)piperazin-2-one], for which, in series [1], the EC90 was 880 nM. This compound came in with a CC90 at 8 days in series [2] of over 10000 nM.
On the same counts, the results for `CC(C)C[C@H]1C(=O)N[C@@H](C(C)(C)C)CN1Cc1cc(-c2ccc(F)cc2)on1` [Compound 205, (3S,6S)-6-(tert-butyl)-4-((5-(4-fluorophenyl)isoxazol-3-yl)methyl)-3-isobutylpiperazin-2-one] are 8900 nM and over 10000 nM.
With `CCC[C@H]1CN(Cc2cc(-c3ccc(F)cc3)on2)[C@@H](CC(C)C)C(=O)N1` [Compound 206, (3S,6S)-4-((5-(4-fluorophenyl)isoxazol-3-yl)methyl)-3-isobutyl-6-propylpiperazin-2-one], the 90% effect concentration (EC90) in series [1] was 210 nM. The compound also yielded a CC90 at 8 days in series [2] of over 10000 nM.
With `CC(C)C[C@H]1C(=O)N[C@@H](C2CCCCC2)CN1Cc1cc(-c2ccc(F)cc2)on1` [Compound 207, (3S,6S)-6-cyclohexyl-4-((5-(4-fluorophenyl)isoxazol-3-yl)methyl)-3-isobutylpiperazin-2-one], the EC90 in series [1] came to 860 nM. In series [2], this compound came in with a CC90 at 8 days of over 10000 nM.
Consider `CC(C)C[C@H]1C(=O)N[C@@H](C2CCCC2)CN1Cc1cc(-c2ccc(F)cc2)on1` [Compound 208, (3S,6S)-6-cyclopentyl-4-((5-(4-fluorophenyl)isoxazol-3-yl)methyl)-3-isobutylpiperazin-2-one], for which, in series [1], the EC90 was found to be 210 nM. For the same compound, the CC90 at 8 days in series [2] was over 10000 nM.
On the same counts, the results for `CC(C)C[C@H]1C(=O)N[C@@H](CC2CC2)CN1Cc1cc(-c2ccc(Cl)cc2)on1` [Compound 209, (3S,6S)-4-((5-(4-chlorophenyl)isoxazol-3-yl)methyl)-6-(cyclopropylmethyl)-3-isobutylpiperazin-2-one] are 670 nM and over 10000 nM.
For the compound `CCC[C@H]1CN(Cc2cc(-c3ccc(Cl)cc3)on2)[C@@H](CC(C)C)C(=O)N1` [Compound 210, (3S,6S)-4-((5-(4-chlorophenyl)isoxazol-3-yl)methyl)-3-isobutyl-6-propylpiperazin-2-one], the EC90 in series [1] worked out at 320 nM. The compound also had a CC90 at 8 days in series [2] of over 10000 nM.
For `CC(C)C[C@H]1C(=O)N[C@@H](C2CCCCC2)CN1Cc1cc(-c2ccc(Cl)cc2)on1` [Compound 211, (3S,6S)-4-((5-(4-chlorophenyl)isoxazol-3-yl)methyl)-6-cyclohexyl-3-isobutylpiperazin-2-one] the same measures were 410 nM and over 10000 nM.
